According to patent US11202773B2, “Locally bioavailable drugs” (UNIVERSITY OF HOUSTON SYSTEM, priority 2015, dated 2021):

How the values were obtained:
human COX-2 [1] = molecular target: T1, human COX-2 (Homo sapiens, UniProt P35354); assay: In vitro enzyme assay, recombinant human COX-2 (PGE2 production); format: biochemical; conditions: for IC50: read-out: IC50 against recombinant human COX-2; for Inhibition of COX-2 enzyme (PGE2 production, FIG. 3A): result in words
T1 sequence (P35354 18-604): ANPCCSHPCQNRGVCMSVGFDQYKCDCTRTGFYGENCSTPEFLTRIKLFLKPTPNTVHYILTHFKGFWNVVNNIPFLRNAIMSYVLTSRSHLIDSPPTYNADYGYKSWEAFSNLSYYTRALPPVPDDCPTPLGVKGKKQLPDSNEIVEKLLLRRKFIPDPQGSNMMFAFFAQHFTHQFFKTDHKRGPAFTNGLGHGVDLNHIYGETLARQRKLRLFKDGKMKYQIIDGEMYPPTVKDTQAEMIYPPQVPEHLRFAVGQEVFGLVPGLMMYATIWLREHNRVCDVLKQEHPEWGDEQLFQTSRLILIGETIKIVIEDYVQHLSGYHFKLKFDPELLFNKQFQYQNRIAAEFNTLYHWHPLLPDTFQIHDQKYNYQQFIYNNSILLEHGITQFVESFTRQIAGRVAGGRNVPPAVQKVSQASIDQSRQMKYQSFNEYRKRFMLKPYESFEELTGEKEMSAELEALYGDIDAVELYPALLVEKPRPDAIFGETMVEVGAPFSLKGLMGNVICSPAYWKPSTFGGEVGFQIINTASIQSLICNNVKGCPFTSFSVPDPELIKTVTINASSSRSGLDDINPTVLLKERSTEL
Source text: FIG. 3A is a bar graph illustration of PGE2 production by recombinant human COX-2 enzyme in the presence of the new compounds. Less PGE2 production means inhibition of COX-2 enzyme.
FIG. 3B is a bar graph illustration of PGE2 production by recombinant human COX-2 enzyme in the presence of the metabolites of the new compounds. Less PGE2 production means inhibition of COX-2 enzyme.

mouse COX-2 = molecular target: T2, mouse COX-2 (Mus musculus, UniProt Q05769); assay: COX-2 activity (PGD2/PGE2 production) in LPS-induced Raw264.7 cells; format: cell-based; conditions: for IC50: 0.1 μg/mL LPS, 14 hours co-incubation; for PGD2 production, % of control / PGD2 production by Raw264.7 cells: LPS, 14 hours; for PGD2 production by Raw264.7 cells: 1 μM compound, result in words
T2 construct: Raw264.7 is a mouse macrophage cell line which expresses a high level of COX-2 protein upon lipopolysaccharide (LPS) induction; endogenous in cells; host or cells: Raw264.7 (LPS-induced)
T2 sequence (Q05769 18-604): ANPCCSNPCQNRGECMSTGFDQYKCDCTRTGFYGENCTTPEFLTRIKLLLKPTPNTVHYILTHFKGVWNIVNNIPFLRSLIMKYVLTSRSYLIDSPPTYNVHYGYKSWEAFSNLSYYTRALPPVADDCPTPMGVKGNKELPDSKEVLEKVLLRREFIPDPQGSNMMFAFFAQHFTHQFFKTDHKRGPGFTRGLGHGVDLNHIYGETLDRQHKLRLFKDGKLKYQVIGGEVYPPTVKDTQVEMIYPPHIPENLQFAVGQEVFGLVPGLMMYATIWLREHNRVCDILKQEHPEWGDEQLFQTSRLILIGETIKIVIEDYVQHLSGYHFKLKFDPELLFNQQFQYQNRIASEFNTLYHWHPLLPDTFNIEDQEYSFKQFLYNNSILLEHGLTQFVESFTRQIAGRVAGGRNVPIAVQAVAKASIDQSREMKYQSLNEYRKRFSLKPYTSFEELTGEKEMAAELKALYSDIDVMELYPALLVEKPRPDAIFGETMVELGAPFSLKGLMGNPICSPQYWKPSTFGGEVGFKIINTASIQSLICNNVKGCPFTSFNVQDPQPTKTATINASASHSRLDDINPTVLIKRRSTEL
Method: (§1) First, the inhibitory effects of the new synthesized compounds on COX-2 were assayed in two cell lines: Raw264.7 cells and HCA-7 cells. Raw264.7 is a mouse macrophage cell line which expresses a high level of COX-2 protein upon lipopolysaccharide (LPS) induction. […] The concentration of prostaglandins (both PGD2 and PGE2) accumulated in the cell culture medium can be employed as an indicator of COX-2 activity. HCA-7 is a human colon cancer cell line in which COX-2 protein is constitutively expressed. Briefly, the cells were pre-incubated with different concentrations of the new compounds for 30 min, and then 10 μM A23187 (a calcium ionophore) was added to release membrane-bound arachidonic acid (the natural substrate of COX-2) to the cytosolic domain. The system was incubated for another 30 minutes and PGE2 concentrations in the culture medium were determined. In both cell lines, higher PGD2/PGE2 concentrations in the media meant more COX-2 activity.

human COX-2 [2] = molecular target: T1, human COX-2; assay: COX-2 activity (PGE2 production) in HCA-7 cells after A23187; format: cell-based; set-up: HCA-7 is a human colon cancer cell line in which COX-2 protein is constitutively expressed; endogenous in cells; host or cells: HCA-7; conditions: 30 min pre-incubation, 10 μM A23187, another 30 minutes
Method: as §1

Raw264.7 cells = assay: Metabolism of the phenolics by Raw264.7 cells; format: in vitro ADME, mouse; conditions: 1 μM compound, 14 hours
Method: FIG. 4A is a bar graph illustration of the metabolism of the phenolics by Raw264.7 cells. Raw264.7 cells were incubated with 0.1 μg/mL LPS and 1 μM 6a1, 6a2 or 6a3, respectively. 14 hours later the concentrations of PGD2, the phenolics (i.e., aglycones, solid bars), and their phase II metabolites (open bars for glucuronides and shade bars for sulfates) were determined in the medium. Less PGD2 production means inhibition of COX-2 enzyme.
Glucuronidation of 6a1 in Raw264.7 cells was not influenced by LPS (FIG. 4B). […] The results of these experiments initially indicate that when characterizing inhibitory effects of the phenolics on COX-2, the importance of metabolic stability should be brought into consideration. This could be why phenolics were not considered to be active against COX-2 in many published reports using cellular COX-2 assays.

IC50 (human COX-2 [1]) [nM] | Inhibition of COX-2 enzyme (PGE2 production, FIG. 3A) (human COX-2 [1]) | IC50 (mouse COX-2) [µM] | PGD2 production, % of control (mouse COX-2; 1 μM 6a1, with glucuronidase (200 units/mL)) | PGD2 production, % of control (mouse COX-2; 1 μM 6a1, without glucuronidase) | PGD2 production by Raw264.7 cells (mouse COX-2) | IC50 (human COX-2 [2]) [µM] | Compound | Form recovered in medium at the end of incubation (Raw264.7 cells)
118 | effective inhibitors | 1.39 ± 0.384 | 24.3 % of control | 67.5 % of control | only slightly reduced | 0.195 ± 0.03 | Cc1ccc(-c2cc(COc3ccccc3O)nn2-c2ccc(S(N)(=O)=O)cc2)cc1 [Compound 6a1] | recovered exclusively as their glucuronides
201 | effective inhibitors | 4.62 ± 1.34 |  |  | only slightly reduced | 0.134 ± 0.018 | Cc1ccc(-c2cc(COc3cccc(O)c3)nn2-c2ccc(S(N)(=O)=O)cc2)cc1 [Compound 6a2] | recovered exclusively as their glucuronides
1080 | effective inhibitors | 0.019 ± 0.002 |  |  | thoroughly inhibited | 0.064 ± 0.005 | Cc1ccc(-c2cc(COc3ccc(O)cc3)nn2-c2ccc(S(N)(=O)=O)cc2)cc1 [Compound 6a3] | stayed as aglycone
